The values that follow come from PMC3585965 (Drugs in R&D, 2012).

The nature of data set [1]: Study 2: pharmacokinetic drug-drug interaction GLPG0259 / methotrexate. It is filed as in vivo, human. The settings on record: methotrexate 7.5 mg.
For data set [2] the following is noted: cited from earlier work.

As to `CN(Cc1cnc2nc(N)nc(N)c2n1)c1ccc(C(=O)N[C@@H](CCC(=O)O)C(=O)O)cc1` [methotrexate], the “Cmax point estimate, with vs without GLPG0259” value in data set [1] (day 14 (GLPG0259 50 mg) vs day -7) is listed as 89.63%. In addition, in data set [1] (day 14 vs day -7), the “AUC∞ point estimate, with vs without GLPG0259” value is given as 118.22% and the “t1/2,λz point estimate, with vs without GLPG0259” value is 110.64%. Besides, in data set [2], the “t1/2,λz, range of boundary values reported in the literature” value is 6 to 69 h.
